# Source: the NIST ThermoML archive (doi:10.1016/j.jct.2005.07.006)
# ± gives the expanded uncertainty stated by the source.
# Columns and labels:
# [1] = Molar enthalpy of transition or fusion; settings: Crystal; DSC
# [2] = Crystal; DTA
compound,measurement,setting,value
"N#Cc1nccnc1C#N [2,3-pyrazinedicarbonitrile]",Molar enthalpy of transition or fusion,[1],4.73 ± 0.179 kcal/mol
same,Triple point temperature,[2],405.06 ± 0.39 K
